Laboratory results from ChEMBL document CHEMBL1139084, “N-Alkyl-N-alkyloxycarbonylaminomethyl (NANAOCAM) prodrugs of carboxylic acid containing drugs” (Bioorg Med Chem Lett, 2007).
Converted amounts (≈) assume the structure as drawn.

What was measured:
[1] = Stability in aqueous buffer assessed as hydrolysis half life; assay type: physicochemical
[2] = Dissociation constant, pKa of the compound; assay type: physicochemical
[3] = Permeability across hairless mouse skin from isopropyl myristate; assay type: ADME, tissue-based, Zone of skin; details: read-out: permeability (converted)
[4] = Solubility in isopropyl myristate; assay type: physicochemical
Zone of skin = experiment: Drug level in mouse skin; assay type: ADME, tissue-based; details: in vitro
[5] = Partition coefficient, log K between isopropyl myristate and pH 4.0 buffer; assay type: ADME; details: isopropyl myristate/pH 4.0 buffer

SMILES	half-life [1] [min]	pKa [2]	Papp [3] [×10⁻⁶ cm/s]	solubility [4] [mM]	Drug uptake (Zone of skin) [µmol]	log K [5]
COC(=O)N(C)COC(=O)Cc1c(C)n(C(=O)c2ccc(Cl)cc2)c2ccc(OC)cc12	3.65	4.5				
COC(=O)N(C)COC(=O)[C@@H](C)c1ccc2cc(OC)ccc2c1	2	4.2	5.28	5.16 (≈ 1710 µg/mL)	4.21	1.67
COC(=O)N(COC(=O)[C@@H](C)c1ccc2cc(OC)ccc2c1)c1ccccc1	120	4.2				
CCn1cc(C(=O)OCN(C)C(=O)OC)c(=O)c2ccc(C)nc21	40	6				
COc1ccc2cc([C@H](C)C(=O)O)ccc2c1 [NAPROXEN]					2.71	
COC(=O)N(C)COC(=O)C(C)c1ccc(CC(C)C)cc1 (centres undefined)	4.11	4.41				
COC(=O)N(COC(=O)[C@@H](C)c1ccc2cc(OC)ccc2c1)c1ccc(OC)cc1	49.8	4.2				
CCOC(=O)c1ccc(N(COC(=O)[C@@H](C)c2ccc3cc(OC)ccc3c2)C(=O)OC)cc1	156	4.2				
